Laboratory results taken from ChEMBL document CHEMBL1687904, “Pestaloquinols A and B, isoprenylated epoxyquinols from Pestalotiopsis sp” (J Nat Prod, 2011).

System: HeLa
Test: Cytotoxicity against human HeLa cells after 48 hrs by MTT assay
Assay type: functional, cell-based

## CCCCC[C@@H]1O[C@@H]2C3=C(C(=O)[C@@H]4O[C@@]45C[C@H](O)C(C)(C)O[C@H]35)[C@H]1[C@H]1[C@H](CCCCC)OC=C3[C@@H]4OC(C)(C)[C@@H](O)C[C@@]45O[C@H]5C(=O)[C@@]312 [PESTALOQUINOL B]
  IC50: 880 nM

## CCCCC[C@@H]1OC=C2[C@@H]3OC(C)(C)[C@@H](O)C[C@@]34O[C@H]4C(=O)[C@]23[C@H]1[C@H]1C2=C([C@H]4OC(C)(C)[C@@H](O)C[C@@]45O[C@H]5C2=O)[C@@H]3O[C@@H]1CCCCC [PESTALOQUINOL A]
  IC50: 1630 nM
